Read-outs that look alike come from different tables or passages of the source.
Experiments:
Cyp1a1 = experiment: In Vivo Mouse liver and spleen Cyp1a1 Modulation Assay (Example 1E); design: species or system C57BL/6 mice; details: po, with AHR agonist VAG539 30 mg/kg po, qPCR
Protocol: C57BL/6 mice, female, 6-8 weeks old, weighing approximately 18-20 g were purchased from Shanghai Lingchang Biological Technology Co., Ltd or other certified vendors and used in the studies. Animal husbandry, feeding and health conditions are according to animal welfare guidelines. VAG539 (30 mg/kg, po) was used as AHRagonist, and test compounds were formulated in suitable vehicles, typically 0.5% methylcellulose).
C57BL/6 mice (n=3 per group) were treated with AHR agonist alone or with AHR agonist and test compounds. Animals were sacrificed at 4 or 10 hours after treatment upon which their livers and spleens were collected and subsequently analyzed by qPCR. Normalized fold induction of cyp1a1 was determined by comparing mCYP1A1 and mGAPDH counts (ct) according to: normalized fold=2^−ΔΔCt. The percent inhibition was calculated according to: […]

[1] = Mouse Pharmacokinetic Study (Example 1C); format: in vivo; details: mouse, plasma, CD-1 mice; for Vd: read-out: Vdss
Outline: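 CD-1 mice dosed intravenously or by oral gavage; plasma sampled at 0.167, 0.5, 1, 2, 4, 6, 12 and 24 h post-dose. Samples analyzed by LC/MS/MS (MRM, positive mode) against a plasma standard curve of 1.0–3000 ng/mL; PK parameters from non-compartmental analysis.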

AHR = target: T1, AHR (UniProt P35869); experiment: DRE-Luciferase Reporter Assay (Alternate Method) (Example 1B); format: cell-based, murine or human; details: cell line and AHR activating ligand not specified
T1 construct: IC50
T1 sequence (P35869 1-848): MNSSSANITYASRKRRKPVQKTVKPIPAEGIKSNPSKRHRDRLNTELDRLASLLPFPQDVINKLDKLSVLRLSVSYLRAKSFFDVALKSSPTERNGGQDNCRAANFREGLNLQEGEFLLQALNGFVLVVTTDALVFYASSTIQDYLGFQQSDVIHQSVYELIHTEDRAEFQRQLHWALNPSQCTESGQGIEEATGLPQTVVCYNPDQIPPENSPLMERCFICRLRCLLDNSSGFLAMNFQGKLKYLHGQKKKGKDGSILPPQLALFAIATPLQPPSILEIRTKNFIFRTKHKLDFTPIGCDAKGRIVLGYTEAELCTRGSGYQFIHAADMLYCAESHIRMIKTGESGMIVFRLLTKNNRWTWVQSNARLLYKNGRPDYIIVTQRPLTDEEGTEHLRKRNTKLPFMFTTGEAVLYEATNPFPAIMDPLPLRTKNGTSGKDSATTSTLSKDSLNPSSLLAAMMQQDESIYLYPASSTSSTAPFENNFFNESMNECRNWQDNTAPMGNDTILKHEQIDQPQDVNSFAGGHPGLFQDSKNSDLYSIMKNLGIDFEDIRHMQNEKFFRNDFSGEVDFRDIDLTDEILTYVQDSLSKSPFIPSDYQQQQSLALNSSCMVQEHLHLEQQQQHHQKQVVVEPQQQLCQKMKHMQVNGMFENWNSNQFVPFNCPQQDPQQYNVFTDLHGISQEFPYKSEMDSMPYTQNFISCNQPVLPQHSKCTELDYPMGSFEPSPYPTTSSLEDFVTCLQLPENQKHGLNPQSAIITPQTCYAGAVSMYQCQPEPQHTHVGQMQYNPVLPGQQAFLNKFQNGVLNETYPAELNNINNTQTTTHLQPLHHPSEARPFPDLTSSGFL

[2] = 4 h, read-out: Cyp1a1 inhibition, Liver, 4 h
[3] = 4 h, read-out: Cyp1a1 inhibition, Spleen, 4 h
[4] = 10 h, read-out: Cyp1a1 inhibition, Liver, 10 h

## CC(C)c1cnn2c(NCCc3c[nH]c4ccccc34)cc(-c3cncc(F)c3)nc12 [I-2, N-(2-(1H-indol-3-yl)ethyl)-5-(5-fluoropyridin-3-yl)-3-isopropylpyrazolo[1,5-a]pyrimidin-7-amine]
Cyp1a1; [2]
  inhibition at 30 mg/kg: 50%
[1]; po, 30 mg/kg
  bioavailability: 12%
  AUC(0-inf): 743 ng·h/mL
  AUC(0-t): 730 ng·h/mL
  Cmax: 182 ng/mL
  Tmax: 0.2 h
  half-life: 3.9 h
[1]; iv, 3 mg/kg
  AUC(0-inf): 610 ng·h/mL
  AUC(0-t): 554 ng·h/mL
  clearance: 82 mL/min/kg
  half-life: 1.99 h
  Vd: 9.6 L/kg
AHR
  IC50: < 500 nM

## CC(C)c1cnn2c(N[C@@H]3CCc4[nH]c5ccccc5c4C3)nc(-c3cncc(F)c3)nc12 [I-40, (3R)—N-[2-(5-Fluoro-3-pyridyl)-8-isopropyl-pyrazolo[1,5-a][1,3,5]triazin-4-yl]-2,3,4,9-tetrahydro-1H-carbazol-3-amine]
Cyp1a1; [2]
  inhibition at 5 mg/kg: 77%
  inhibition at 10 mg/kg: 93%
  inhibition at 25 mg/kg: 98%
Cyp1a1; [3]
  inhibition at 5 mg/kg: 34%
  inhibition at 10 mg/kg: 74%
  inhibition at 25 mg/kg: 96%
Cyp1a1; [4]
  inhibition at 5 mg/kg: 48%
  inhibition at 10 mg/kg: 75%
  inhibition at 25 mg/kg: 97%
[1]; po, 30 mg/kg
  bioavailability: 75%
  AUC(0-inf): 9140 ng·h/mL
  AUC(0-t): 7560 ng·h/mL
  Cmax: 853 ng/mL
  Tmax: 2 h
  half-life: 8.8 h
[1]; iv, 3 mg/kg
  AUC(0-inf): 1210 ng·h/mL
  AUC(0-t): 1070 ng·h/mL
  clearance: 41.2 mL/min/kg
  half-life: 8.4 h
  Vd: 24 L/kg
AHR
  IC50: < 500 nM

## Cc1cnn2c(NCCc3c[nH]c4ccccc34)cc(-c3cncc(F)c3)nc12 [I-70, 5-(5-Fluoro-3-pyridyl)-N-[2-(1H-indol-3-yl)ethyl]-3-methyl-pyrazolo[1,5-a]pyrimidin-7-amine]
Cyp1a1; [2]
  inhibition at 1 mg/kg: 52%
  inhibition at 2 mg/kg: 83%
  inhibition at 5 mg/kg: 93%
  inhibition at 10 mg/kg: 99%
  inhibition at 30 mg/kg: 98%
Cyp1a1; [3]
  inhibition at 1 mg/kg: 38%
  inhibition at 2 mg/kg: 65%
  inhibition at 5 mg/kg: 79%
  inhibition at 10 mg/kg: 88%
Cyp1a1; [4]
  inhibition at 1 mg/kg: 34%
  inhibition at 2 mg/kg: 63%
  inhibition at 5 mg/kg: 96%
  inhibition at 10 mg/kg: 81%
[1]; po, 30 mg/kg
  bioavailability: 26%
  AUC(0-inf): 1990 ng·h/mL
  AUC(0-t): 1940 ng·h/mL
  Cmax: 900 ng/mL
  Tmax: 0.5 h
  half-life: 2.26 h
[1]; iv, 3 mg/kg
  AUC(0-inf): 872 ng·h/mL
  AUC(0-t): 862 ng·h/mL
  clearance: 54.9 mL/min/kg
  half-life: 1.08 h
  Vd: 3.2 L/kg

## Cc1cnn2c(N[C@@H]3CCc4[nH]c5ccccc5c4C3)nc(-c3cncc(F)c3)nc12 [I-201, (3R)—N-[2-(5-fluoro-3-pyridyl)-8-methyl-pyrazolo[1,5-a][1,3,5]triazin-4-yl]-2,3,4,9-tetrahydro-1H-carbazol-3-amine]
Cyp1a1; [2]
  inhibition at 5 mg/kg: 58%
  inhibition at 10 mg/kg: 72%
  inhibition at 25 mg/kg: 86%
Cyp1a1; [3]
  inhibition at 5 mg/kg: 40%
  inhibition at 10 mg/kg: 46%
  inhibition at 25 mg/kg: 72%
Cyp1a1; [4]
  inhibition at 5 mg/kg: 44%
  inhibition at 10 mg/kg: 59%
  inhibition at 25 mg/kg: 97%
[1]; po, 30 mg/kg
  bioavailability: 79%
  AUC(0-inf): 10600 ng·h/mL
  AUC(0-t): 9650 ng·h/mL
  Cmax: 1410 ng/mL
  Tmax: 1 h
  half-life: 7.16 h
[1]; iv, 3 mg/kg
  AUC(0-inf): 1330 ng·h/mL
  AUC(0-t): 1200 ng·h/mL
  clearance: 37.5 mL/min/kg
  half-life: 8.52 h
  Vd: 19.6 L/kg
AHR
  IC50: < 500 nM

— patent publication US11358969B2, “Indole AHR inhibitors and uses thereof” (Ikena Oncology, Inc., priority 2017, dated 2022)
